In assay [1] the target is T1, Human cytomegalovirus DNA polymerase (Human cytomegalovirus, UniProt P08546).
T1 construct: made in house; host or cells: SF21 insect cells (baculovirus vector)
Kind of assay: HCMV polymerase assay (AlphaLISA). The format is biochemical. Particulars: HCMV DNA polymerase 0.2 nM, 60 minutes at 37° C.; read-out: CMV (IC50). The method, boiled down:
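Baculovirus/SF21-expressed polymerase (HCMV 0.2 nM; VZV 0.4 nM) pre-incubated 30 min at room temperature with compound in HEPES pH 7.5 buffer, then 60 min at 37 °C with 1.6 nM DIG-primer/template, sub-nM to 24 nM dNTPs and 0.8 nM biotin-dUTP. AlphaLISA detection; IC50 from 4-parameter fit.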
Background: Bead proximity is the source of the signal in Alpha formats.

The target of assay [2] is T2, varicella zoster virus DNA polymerase (Varicella-zoster virus, UniProt P09252).
T2 construct: made in house; host or cells: SF21 insect cells (baculovirus vector)
Nature of the assay: VZV polymerase assay (AlphaLISA). The class given is biochemical. Particulars: VZV DNA polymerase 0.4 nM, 60 minutes at 37° C. Here is the method: Human cytomegalovirus and varicella zoster virus DNA polymerases were expressed via baculovirus vector in SF21 cells and purified. Heterodimeric nucleic acid substrate used in the herpesvirus polymerase reactions was generated by annealing a 59-mer template to a 17-mer digoxigenin-labeled primer. Polymerase (HCMV final concentration of 0.2 nM; VZV final concentration of 0.4 nM) was combined with an inhibitor compound or DMSO in assay buffer (10 mM HEPES, pH 7.5, 25 mM KCl, 25 mM NaCl, 5 mM MgCl2, 5% glycerol, 0.67 mg/ml bovine serum albuminutes, and 1 mM tris(2-carboxyethyl)phosphine), and this mixture was pre-incubated for 30 minutes at room temperature in 384-well microtiter plates. The polymerization reaction was initiated by the addition of template/primer substrate (final concentration: 1.6 nM), and dNTPs (final concentration: 24 nM dCTP, 24 nMdGTP, 16 nM dATP, 16 nM dTTP, and 0.8 nM biotin-dUTP). After 60 minutes incubation at 37° C., reactions were terminated with quench buffer (25 mM HEPES pH 7.5, 100 mM NaCl, 0.25% Tween-20, 12 mM EDTA, and 1 mg/ml bovine serum albumin). Incorporation of biotinylated UTP was detected with 2.5-ug/ml anti-DIG AlphaLISA acceptor beads and 5-10 ug/ml streptavidin AlphaLISA donor beads (Perkin Elmer). Compound effects were normalized to the window defined by the controls (DMSO only and pre-quenched wells) and were fit using a 4-parameter algorithm to report an IC50.

For a further assay, the system named is HCMV Strain AD169. Nature of the assay: Viral qPCR assay, HCMV in MRC-5 cells. The format is cell-based, Human cytomegalovirus. The settings on record: read-out: CMV MRC5 Cell (EC50). The method, boiled down: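 Viral genome copies, quantified by TaqMan qPCR with a plasmid standard curve after ~72 h infection of MRC-5 cells with AD169 at 0.05-0.1 pfu/cell, served as readout; PPIA normalisation used in one format. Compounds run as 10-point 3-fold series, in standard or 50% FBS media; EC50 by 4-parameter fit.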
For orientation: In qPCR the cycle at which signal appears reflects the starting amount.

The subject of the next assay is HSV-1 Strain F. Nature of the assay: Viral qPCR assay, HSV-1 in Vero cells. The class given is cell-based, Herpes Simplex Virus type 1. Particulars: read-out: HSV1 VERO Cell (EC50). Here is the method: (§1) MRCS cells, Vero cells, and MeWo cells were obtained from ATCC and were maintained at 37° C./5% CO2/90% relative humidity in Minimal Essential Medium with 10% fetal bovine serum, […] L-glutamine, 100 units/ml penicillin and 100 ug/ml streptomycin. Assay plates were prepared by dispensing compounds dissolved in DMSO into wells of 384 well collagen-coated plates using an ECHO acoustic dispenser. Each compound was tested in a 10-point, serial 3-fold dilution. Controls included uninfected cells and infected cells treated only with DMSO. Assays were initiated by mixing selected cells, in suspension, with virus, and dispensing 50 μl/well infected cells to pre-plated compounds. Plates were incubated at 37° C./5% CO2/90% relative humidity for ˜72 hrs to permit genomic replication, and infected cells were lysed by the addition of an equal volume of lysis buffer (10 mM Tris-HCl, pH8, 50 mM KCl, 2 mM MgCl2, 0.45% NP-40, 0.45% Tween-20, and 100 μg/ml proteinase K). An aliquot of the lysate was transferred to a 384-well PCR plate and incubated at 56° C. for 1 hour and then at 95° C. for 10 min. Levels of a viral gene and of the cellular control, PPIA (Thermo Fisher Assay ID=Hs04194521_s1), were measured in separate 10 μL qPCR assays using TaqMan® Gene Expression Master Mix (Applied Biosystems), and an 7900HT Fast Real-Time PCR System with 384-Well Block Module. 7-point, serial 10-fold dilutions of a plasmid standard were run on each plate to generate a standard curve, and genome copies numbers were calculated by plotting experimental Ct onto linear regression of the standard curve. Viral genome copy numbers were normalized by cellular control copy number, and compound effects were normalized to the window defined by the controls. Calculated % effects were fit using a 4-parameter algorithm, and EC50 was reported.
as §1, with “gene” for “gene and of the cellular control, PPIA (Thermo Fisher Assay ID=Hs04194521_s1),”, “in” for “in separate”, “Compound effects on viral” for “Viral”, “number” for “numbers were normalized by cellular control copy number, and compound effects”
VZV: Strain Street was maintained as an infected cell stock in MRC-5 cells. It was assayed in MeWo or MRCS cells and was used at 0.04-0.1 pfu/cell. The assays were performed in growth medium. Primer-probe set was Thermo Fisher Assay ID=AIPAEXQ. HSV-1: Strain F Street was assayed in Vero or MRCS cells and was used at 0.0005-0.004 pfu/cell in growth medium. Primer-probe set was Thermo Fisher Assay ID=AIBJZIB

A further assay relates to HSV2. Nature of the assay: Viral qPCR assay, HSV2 in Vero cells. The class given is cell-based, Herpes Simplex Virus type 2. Particulars: read-out: HSV2 VERO Cell (EC50). Here is the method:
as §1
as §1, with “gene” for “gene and of the cellular control, PPIA (Thermo Fisher Assay ID=Hs04194521_s1),”, “in” for “in separate”, “Compound effects on viral” for “Viral”, “number” for “numbers were normalized by cellular control copy number, and compound effects”

Where [3] appears, read: Human betaherpesvirus 5, AD169, MRC5, 72 h.
Setting [4] is: Human alphaherpesvirus 1, Vero, 72 h.
[5] abbreviates: Human alphaherpesvirus 2, Vero, 72 h.

Where two headings read alike, the source gives them in different places.

T1 sequence (P08546 whole entry): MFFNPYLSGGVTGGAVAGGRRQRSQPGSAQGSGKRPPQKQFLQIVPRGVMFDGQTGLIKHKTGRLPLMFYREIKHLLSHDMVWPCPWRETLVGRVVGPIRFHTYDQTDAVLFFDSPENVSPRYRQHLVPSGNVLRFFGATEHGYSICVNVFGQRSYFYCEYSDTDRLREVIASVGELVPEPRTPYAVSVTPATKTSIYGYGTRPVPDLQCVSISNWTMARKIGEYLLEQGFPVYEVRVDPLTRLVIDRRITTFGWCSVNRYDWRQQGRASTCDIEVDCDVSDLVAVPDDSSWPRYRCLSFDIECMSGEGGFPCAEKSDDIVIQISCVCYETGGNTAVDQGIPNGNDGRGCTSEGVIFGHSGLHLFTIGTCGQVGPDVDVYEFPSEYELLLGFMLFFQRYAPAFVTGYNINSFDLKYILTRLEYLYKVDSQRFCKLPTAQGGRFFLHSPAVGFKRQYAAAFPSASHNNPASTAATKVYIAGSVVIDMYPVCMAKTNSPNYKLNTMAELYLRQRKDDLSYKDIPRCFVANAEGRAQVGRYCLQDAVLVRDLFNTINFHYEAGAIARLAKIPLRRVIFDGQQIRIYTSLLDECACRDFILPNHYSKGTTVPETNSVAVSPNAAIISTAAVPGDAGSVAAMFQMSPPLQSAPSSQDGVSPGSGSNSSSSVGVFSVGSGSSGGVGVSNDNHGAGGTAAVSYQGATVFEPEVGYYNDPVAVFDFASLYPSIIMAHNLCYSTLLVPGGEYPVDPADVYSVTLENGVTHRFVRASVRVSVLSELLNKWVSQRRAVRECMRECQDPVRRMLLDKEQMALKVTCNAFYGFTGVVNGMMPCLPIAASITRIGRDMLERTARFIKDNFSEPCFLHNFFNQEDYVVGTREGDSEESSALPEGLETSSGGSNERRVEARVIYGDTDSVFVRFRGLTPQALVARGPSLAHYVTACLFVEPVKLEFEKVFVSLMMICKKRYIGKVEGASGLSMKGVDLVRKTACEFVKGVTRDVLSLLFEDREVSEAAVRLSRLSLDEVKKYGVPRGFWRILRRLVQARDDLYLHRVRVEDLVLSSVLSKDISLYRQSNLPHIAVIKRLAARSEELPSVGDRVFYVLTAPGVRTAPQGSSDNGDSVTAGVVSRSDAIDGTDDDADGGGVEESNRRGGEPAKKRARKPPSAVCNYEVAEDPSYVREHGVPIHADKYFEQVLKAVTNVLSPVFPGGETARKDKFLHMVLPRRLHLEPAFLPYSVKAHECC
T2 sequence (P09252 whole entry): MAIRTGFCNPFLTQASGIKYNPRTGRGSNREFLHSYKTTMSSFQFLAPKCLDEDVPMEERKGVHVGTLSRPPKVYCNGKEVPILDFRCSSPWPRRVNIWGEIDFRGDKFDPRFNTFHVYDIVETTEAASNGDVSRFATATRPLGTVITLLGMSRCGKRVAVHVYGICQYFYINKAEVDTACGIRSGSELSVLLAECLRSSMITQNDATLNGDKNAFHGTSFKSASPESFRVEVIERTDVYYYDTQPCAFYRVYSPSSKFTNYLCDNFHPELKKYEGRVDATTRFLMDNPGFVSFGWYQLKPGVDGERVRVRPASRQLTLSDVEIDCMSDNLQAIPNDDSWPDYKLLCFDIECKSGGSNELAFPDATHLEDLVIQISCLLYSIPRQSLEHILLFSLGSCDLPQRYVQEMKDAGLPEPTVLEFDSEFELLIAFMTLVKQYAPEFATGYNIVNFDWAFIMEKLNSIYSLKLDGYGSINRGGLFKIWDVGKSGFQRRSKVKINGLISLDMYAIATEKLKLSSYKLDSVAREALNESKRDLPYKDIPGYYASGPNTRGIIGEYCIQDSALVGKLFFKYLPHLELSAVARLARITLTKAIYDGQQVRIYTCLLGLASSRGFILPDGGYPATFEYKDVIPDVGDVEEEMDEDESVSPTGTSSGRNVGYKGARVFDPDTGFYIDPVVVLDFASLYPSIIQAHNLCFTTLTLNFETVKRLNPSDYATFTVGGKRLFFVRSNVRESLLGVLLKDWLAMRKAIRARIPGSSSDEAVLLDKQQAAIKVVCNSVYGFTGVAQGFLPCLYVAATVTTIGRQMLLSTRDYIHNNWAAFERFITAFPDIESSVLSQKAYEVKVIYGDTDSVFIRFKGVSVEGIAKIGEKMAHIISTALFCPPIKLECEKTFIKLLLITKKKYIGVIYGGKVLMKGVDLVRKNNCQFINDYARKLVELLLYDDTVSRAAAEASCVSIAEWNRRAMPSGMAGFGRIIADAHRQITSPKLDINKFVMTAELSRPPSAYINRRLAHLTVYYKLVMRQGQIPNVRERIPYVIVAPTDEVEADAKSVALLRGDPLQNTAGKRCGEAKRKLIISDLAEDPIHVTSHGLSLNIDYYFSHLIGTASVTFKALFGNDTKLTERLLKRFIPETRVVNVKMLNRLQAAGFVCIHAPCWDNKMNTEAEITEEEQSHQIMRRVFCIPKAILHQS

`O=C(NCc1ccc(Cl)cc1)c1nn(CCNC(=O)C2CCC2)c2c1CN(Cc1ccncc1F)C2` [Compound 69]: the results for the IC50 in assay [1] and in assay [2] were 173 nM and 84.9 nM, respectively.
Turning to `O=C1CC[C@H](CC2Cc3c(C(=O)NCc4ccc(Cl)cc4)nn(C4CN(CC5CC5)C4)c3C2)N1` (single isomer, unassigned) [Compound 136], the IC50 in assay [1] is 119 nM; in assay [2], 16.5 nM. The EC50 in the assay with HCMV Strain AD169 (setting [3]) came to 980 nM; in the assay with HSV-1 Strain F (setting [4]) it was 3.52 µM; in the assay on HSV2 (setting [5]), 2520 nM.
For the compound `CN(CCn1nc(C(=O)NCc2ccc(Cl)cc2)c2c1CN(Cc1c(F)cncc1F)C2)C(=O)C1CCC1` [Compound 63], the values for the IC50 in assay [1] and in assay [2] were 99.3 nM and 76 nM, respectively.
Take `C[C@@H]1c2c(C(=O)NCc3ccc(Cl)cc3)nn(C)c2CN1C[C@H]1CCC(=O)N1` [Compound 126]: the IC50 amounted to 522 nM in assay [1] and 159 nM in assay [2]. The EC50 with HCMV Strain AD169 (MRC5 cells, ~72 hrs) is 6110 nM; in the assay on HSV-1 Strain F (~72 hrs) it was 1.19 µM; in the assay on HSV2 (~72 hrs), 1960 nM.
As to `CC1c2c(c(C(=O)NCc3ccc(Cl)cc3)nn2C)CN1C[C@@H]1CCC(=O)N1` (stereo partly drawn) [Compound 101], the results for the IC50 in assay [1] and in assay [2] were 531 nM and 391 nM, respectively. Moreover, the EC50 in the assay on HCMV Strain AD169 (MRC5 cells, ~72 hrs) is 32700 nM; with HSV-1 Strain F (~72 hrs), 29.1 µM.
Regarding `CC(C1CC(F)C(=O)N1)N1Cc2c(C(=O)NCc3ccc(Cl)cc3)nn(C)c2C1` (stereo not drawn) [Compound 76], the half-inhibitory concentration (IC50) is 30 nM in assay [1] and 36.1 nM in assay [2]. Besides, the concentration for a half-maximal effect (EC50) in the assay with HCMV Strain AD169 (MRC5 cells, ~72 hrs) was 3610 nM; in the assay with HSV-1 Strain F (~72 hrs) it was 1.41 µM; in the assay with HSV2 (~72 hrs), 1590 nM.
Consider `Cn1nc(C(=O)NCc2ccc(Cl)cc2)c2c1CC(CC1CCC(=O)N1)C2` (single isomer, unassigned) [Compound 128], for which the figures for the IC50 in assay [1] and in assay [2] were 1060 nM and 289 nM, respectively.
In the same order, the values of `CN(CCn1nc(C(=O)NCc2ccc(Cl)cc2)c2c1CN(Cc1ccnc(F)c1)C2)C(=O)C1CCC1` [Compound 66] are 112 nM and 48.6 nM.
Consider `CC(C)[C@H]1c2c(c(C(=O)NCc3ccc(Cl)cc3)nn2C)CN1C[C@@H]1CCC(=O)N1` [Compound 100], for which the results for the IC50 in assay [1] and in assay [2] were 7.62 nM and 4.84 nM, respectively. The figures for the EC50 with HCMV Strain AD169 (setting [3]), in the assay on HSV-1 Strain F (setting [4]) and with HSV2 (setting [5]) were 222 nM, 0.217 µM and 196 nM, respectively.
On to `O=C1CC[C@H](CN2Cc3c(C(=O)NCc4ccc(Cl)cc4)nn(Cc4nccs4)c3C2)N1` [Compound 48], for which the values for the IC50 in assay [1] and in assay [2] were 69.7 nM and 118 nM, respectively. Also, the EC50 with HCMV Strain AD169 (setting [3]) worked out at 4020 nM.
For the compound `O=C1CCC(CC2Cc3c(C(=O)NCc4ccc(Cl)cc4)nn(CCN4CC(F)(F)C4)c3C2)N1` (stereo not drawn) [Compound 131], the 50% inhibitory concentration (IC50) in assay [1] came to 16.8 nM; in assay [2], 11.7 nM. In addition, the EC50 with HCMV Strain AD169 (setting [3]) is 1580 nM; with HSV-1 Strain F (setting [4]), 7.29 µM; in the assay with HSV2 (setting [5]) it was 7020 nM.
In the case of `CCC1c2c(c(C(=O)NCc3ccc(Cl)cc3)nn2C)CN1CC1CCC(=O)N1` (single isomer, unassigned) [Compound 106], the values for the IC50 in assay [1] and in assay [2] were 108 nM and 30.5 nM, respectively. In addition, the concentration giving a half-maximal response (EC50) with HCMV Strain AD169 (MRC5 cells, ~72 hrs) stood at 1170 nM; in the assay on HSV-1 Strain F (~72 hrs), 1.06 µM; in the assay on HSV2 (~72 hrs), 1550 nM.
Turning to `O=C1CC[C@H](CN2Cc3c(C(=O)NCc4ccc(Cl)cc4)nn(CCN4CC(F)C4)c3C2)N1` [Compound 4], the results for the IC50 in assay [1] and in assay [2] were 52.6 nM and 32.6 nM, respectively. Moreover, the results for the half-maximal effective concentration (EC50) in the assay on HCMV Strain AD169 (setting [3]) and in the assay on HSV-1 Strain F (setting [4]) were 2980 nM and 26.1 µM, respectively.
The corresponding values for `Cn1nc(C(=O)NCc2ccc(Cl)cc2)c2c1C1(CCC1)N(C[C@@H]1CCC(=O)N1)C2` [Compound 123] are 1210 nM, 898 nM, 14600 nM and 13.3 µM.
As to `CN1CC(n2nc(C(=O)NCc3ccc(Cl)cc3)c3c2CC(C[C@@H]2CCC(=O)N2)C3)C1` (stereo partly drawn) [Compound 138], the IC50 in assay [1] was found to be 170 nM. Moreover, the EC50 in the assay with HCMV Strain AD169 (MRC5 cells, ~72 hrs) came to 1870 nM; in the assay on HSV-1 Strain F (~72 hrs), 4.31 µM; in the assay with HSV2 (~72 hrs), 5900 nM.
In the same order, the values of `Cn1nc(C(=O)NCc2ccc(Cl)cc2)c2c1CC(O)(C[C@H]1CCC(=O)N1)C2` (stereo partly drawn) [Compound 139] are 50500 nM, 99000 nM, 99 µM and 33000 nM.
Turning to `CC1(C(=O)NCCn2nc(C(=O)NCc3ccc(Cl)cc3)c3c2CN(C[C@H]2CCC(=O)N2)C3)CC1` [Compound 26], the IC50 in assay [1] amounted to 16.2 nM; in assay [2], 10.2 nM. Besides, the EC50 in the assay with HCMV Strain AD169 (setting [3]) was 2630 nM; in the assay on HSV-1 Strain F (setting [4]), 66.1 µM.
On to `Cn1nc(C(=O)NCc2ccc(Cl)cc2)c2c1C(CO)N(C[C@H]1CCC(=O)N1)C2` (stereo partly drawn) [Compound 122], for which the IC50 in assay [1] stood at 195 nM; in assay [2], 24.1 nM. Besides, the concentration for a half-maximal effect (EC50) in the assay on HCMV Strain AD169 (MRC5 cells, ~72 hrs) was 1310 nM; with HSV-1 Strain F (~72 hrs), 0.86 µM.
With `CN(CCn1nc(C(=O)NCc2ccc(Cl)cc2)c2c1CN(Cc1ccncc1F)C2)C(=O)C1CCC1` [Compound 68], the IC50 in assay [1] stood at 123 nM; in assay [2], 59.1 nM.
On to `C[C@@H]1c2c(C(=O)NCc3ccc(Cl)cc3)nn(C)c2CN1C[C@H]1CCC(=O)N1` [Compound 125], for which, in assay [1], the IC50 came to 1370 nM. Besides, the EC50 with HCMV Strain AD169 (MRC5 cells, ~72 hrs) came out at 2980 nM; in the assay on HSV-1 Strain F (~72 hrs), 4.98 µM; with HSV2 (~72 hrs), 8040 nM.

For orientation: IC50 means the concentration at which inhibition is half-maximal. For orientation: EC50 means the midpoint of the concentration-response curve.
